Patent publication US8617516B2, “Universal anchor peptide for nanoparticles” (Washington University, priority 2008, dated 2013)
Several values for one entry are separate records, joined by “and”; a condition that tells them apart may be missing. Identical values can stand only once.

Columns and labels:
[1] = system: 2F2B mouse endothelial cells; assay: XTT cell viability assay (cytotoxicity of peptides); type: cell-based; conditions: 2F2B cells; for IC50: 3 hours of treatment at 37° C., XTT
Description: For each peptide, cytotoxicity was assessed in 2F2B mouse endothelial cells by the XTT cell viability assay (Biotium, Hayward, Calif.). Cells were seeded in 96-well plates at 10,000 cells/well 24 hours before treatment with melittin and mutated melittins at selected concentrations. After 3 hours of treatment at 37° C., 25 μl of activated XTT solution was added to each well and incubated at 37° C. for 5 hours. After 5 hours of incubation, plates were gently shaken to achieve even dye distribution. The absorbances of the samples were measured by a microplate reader (Biorad, Model 550, Hercules, Calif.) at a wavelength of 450 nm. Background was subtracted and the results were normalized to untreated control cells.

[2] = Surface plasmon resonance (Biacore X 100) binding of peptides on immobilized oil-based nanoparticles; conditions: sensor chip L1, read-out: dissociation constant
Description: (§1) In order to evaluate whether linker peptide 1 (LP1) and linker peptide 2 (LP2) still retained high affinity on a lipid monolayer of the nanoparticles, surface plasmon resonance (SPR) studies were performed by using Biacore X 100 (Biacore Inc, Piscataway, N.J.). The binding kinetics and affinity of LP1 and LP2 on two type of nanoparticles were studied. One type was perfluorocarbon nanoparticles (e.g., perfluorooctylbromide, PFOB), the other type was oil-based (safflower core) nanoparticles. PBS (Ca^2+ and Mg^2+ free) was used as the running buffer. Nanoparticles were immobilized on Biacore sensor chip L1 by injecting nanoparticles at a flow rate of 1 μl/min for 30 minutes, followed by a running buffer wash at a flow rate of 100 μl/min for 50 seconds. Peptides in selected concentrations, prepared in running buffer, were then injected at a flow rate of 30 μl/min for 1 minute. At the end of each experiment, the sensor chip surface was regenerated by injection of 3-[(3-cholamidopropyl)dimethylammonio]-1-propanesulfonate (CHAPS) at a flow rate of 100 μl/min for 24 seconds.

[3] = Surface plasmon resonance (Biacore X 100) binding of peptides on immobilized perfluorocarbon nanoparticles; conditions: read-out: dissociation constant
Description: as §1
The binding kinetics of the resulting VCAM-targeting peptides (i.e., TCP1 and TCP2) on perfluorocarbon nanoparticles were examined using Biacore X 100. PBS (Ca^2+ and Mg^2+ free) was used as the running buffer. Nanoparticles were immobilized on Biacore sensor chip L1 by injecting nanoparticles at a flow rate of 1 μl/min for 30 minutes, followed by a running buffer wash at a flow rate of 100 μl/min for 50 seconds. Targeting peptide prepared at selected concentrations in running buffer was sequentially injected at a flow rate of 30 μl/min for 1 minute. At the end of each experiment, the sensor chip surface was regenerated by injection of 3-[(3-cholamidopropyl)dimethylammonio]-1-propanesulfonate (CHAPS) at a flow rate of 100 μl/min for 24 seconds. FIG. 8 presents selected sensorgrams at several different concentrations of the two VCAM-targeting peptides. The dissociation constant of TCP1 and TCP2 were 0.13 μM and 0.04 μM, respectively.

[4] = Dissociation of loaded peptide from PFOB nanoparticles (tryptophan fluorescence of supernatant); type: physicochemical; conditions: stored at 4° C., up to 70 hours after loading
Description: The dissociation of the peptide from linker peptide 1-loaded PFOB nanoparticles is depicted in FIG. 4. After being loaded with the linker peptide 1, the loaded PFOB nanoparticles were stored at 4° C. for 30 minutes, 1 hour, 2 hours, 4 hours, 22 hours, 46 hours, and 70 hours. The loaded nanoparticles were centrifuged at 100 g for 10 minutes, and the dissociated linker peptide 1 was measured by using tryptophan fluorescence after excitation at 280 nm in a fluorescent spectrofluorometer (Varian Inc, Palo Alto, Calif.).
FIG. 9 presents the dissociation of TCP1 or TCP2 from loaded PFOB nanoparticles as a function of time after loading. After loaded with TCP1 or TCP2, the PFOB nanoparticles were stored at 4° C. for 30 minutes, 1 hour, 2 hours, 4 hours, 22 hours, 46 hours, and 70 hours. The stored nanoparticles were then centrifuged at 100 g for 10 minutes and dissociated TCP1 or TCP2 was measured using tryptophan fluorescence after excitation at 280 nm in a fluorescent spectrofluorometer (Varian Inc, Palo Alto, Calif.).

[5] = Dynamic light scattering size and zeta potential of peptide-loaded liposomes; type: physicochemical
Description: (§2) The size distributions of the nanoparticles with or without the linker peptide were analyzed by dynamic light scattering (Brookhaven Instruments Corp., Holtsville, N.Y.). Zeta potential (ζ) values were determined with a Brookhaven Instruments PALS Zeta Potential Analyzer (Brookhaven Instruments Corp., Holtsville, N.Y.). Data were acquired in the phase-analysis light scattering (PALS) mode following solution equilibration at 25° C. […] This change further confirms the insertion of the linker peptide 1 into the PFOB nanoparticles. Furthermore, the structural integrity of linker peptide 1 inserted PFOB nanoparticles was confirmed by transmission electron microscopy.
The interactions between linker peptide 1 and liposomes are depicted in FIG. 6. […] This change further confirms that the linker peptide 1 inserted into the liposomes.

[6] = Dynamic light scattering size and zeta potential of peptide-loaded PFOB/PFC nanoparticles; type: physicochemical; conditions: for zeta potential: PFOB nanoparticles after incorporating the peptide (plain nanoparticles −17.62 mV); for average hydrodynamic diameter: PFOB nanoparticles with versus without inserted peptide
Description: as §2
The size distributions of the nanoparticles with or without cargo incorporated were analyzed by dynamic light scattering (Brookhaven Instruments Corp., Holtsville, N.Y.). The size distribution was plotted by particle number. Zeta potential (ζ) values were determined with a Brookhaven Instruments PALS Zeta Potential Analyzer (Brookhaven Instruments Corp., Holtsville, N.Y.). Data were acquired in the phase-analysis light scattering (PALS) mode following solution equilibration at 25° C.

VCAM-1 = biological target: T1, VCAM-1 (Mus musculus, UniProt P29533); assay: Specific binding of VCAM targeted nanoparticles by confocal microscopy; type: cell-based; conditions: Alexa Fluor 488 labeled PFOB nanoparticles, TNF-α stimulated 2F2B cells, 1 hour
T1 construct: endogenous in cells; host or cells: 2F2B endothelial cells, TNF-α stimulated
T1 sequence (P29533 25-739): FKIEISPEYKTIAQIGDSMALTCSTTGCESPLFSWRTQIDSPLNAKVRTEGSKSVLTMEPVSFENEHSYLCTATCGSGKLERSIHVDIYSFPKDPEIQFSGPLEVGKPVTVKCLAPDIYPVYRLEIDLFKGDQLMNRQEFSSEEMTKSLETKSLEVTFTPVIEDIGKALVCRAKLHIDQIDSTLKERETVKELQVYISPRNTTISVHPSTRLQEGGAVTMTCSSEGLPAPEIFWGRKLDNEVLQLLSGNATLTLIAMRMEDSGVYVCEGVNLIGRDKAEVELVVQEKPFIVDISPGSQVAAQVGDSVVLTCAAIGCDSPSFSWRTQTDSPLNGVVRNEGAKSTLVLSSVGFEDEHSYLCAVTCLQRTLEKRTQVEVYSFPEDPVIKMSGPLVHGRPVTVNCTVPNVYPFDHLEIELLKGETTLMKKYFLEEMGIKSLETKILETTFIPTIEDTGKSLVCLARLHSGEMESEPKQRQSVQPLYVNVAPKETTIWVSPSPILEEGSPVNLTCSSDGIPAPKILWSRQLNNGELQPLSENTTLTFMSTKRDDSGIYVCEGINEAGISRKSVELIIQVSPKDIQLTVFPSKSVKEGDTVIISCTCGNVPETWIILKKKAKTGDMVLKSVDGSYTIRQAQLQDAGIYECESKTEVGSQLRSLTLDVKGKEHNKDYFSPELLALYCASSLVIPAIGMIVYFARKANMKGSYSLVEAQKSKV
Description: The specific binding of VCAM targeted nanoparticles was evaluated by confocal microscopy in 2F2B cells, which express VCAM-1 on the cell surface after TNF-α stimulation. Alexa Fluor 488 labeled PFOB nanoparticles comprising the VCAM-targeting peptide (TCP1 or TCP2) or nanoparticles themselves were incubated with TNF-α stimulated 2F2B cells in Delta T Culture dish at 37° C. for 1 hour, followed by five PBS washes. Cells were then fixed by incubation in 1 ml of 4% paraformaldehyde at 37° C. for 5 minutes. After fixation, the cells were washed with PBS for 5 times and the cells were visualized using a confocal microscope (Zeiss Meta 510, Thornwood, N.Y.) with standard filter sets. Concomitant differential interference contrast (DIC) imaging was used to determine the location of nanoparticles in the cells.

[7] = on perfluorocarbon nanoparticles, sensor chip L1
[8] = VCAM-targeting peptides on perfluorocarbon nanoparticles

Molecule: CC[C@H](C)[C@H](NC(=O)CNC(C)=O)C(=O)NCC(=O)N[C@@H](C)C(=O)N[C@@H](Cc1c[nH]c2ccccc12)C(=O)N[C@@H](CC(C)C)C(=O)N[C@@H](CCCCN)C(=O)N[C@H](C(=O)N[C@@H](CC(C)C)C(=O)N[C@H](C(=O)N[C@H](C(=O)NCC(=O)N[C@@H](CC(C)C)C(=O)N1CCC[C@H]1C(=O)N[C@@H](C)C(=O)N[C@@H](CC(C)C)C(=O)N[C@H](C(=O)N[C@@H](CO)C(=O)N[C@@H](Cc1c[nH]c2ccccc12)C(=O)N[C@H](C(=O)N[C@@H](CCCCN)C(=O)N[C@@H](CCCNC(=N)N)C(=O)N[C@@H](CCCCN)C(=O)N[C@@H](CCCNC(=N)N)C(=O)N[C@@H](CCC(N)=O)C(=O)N[C@@H](CCC(N)=O)C(N)=O)[C@@H](C)CC)[C@@H](C)CC)[C@@H](C)O)[C@@H](C)O)C(C)C [Peptide P1]
- IC50 [1]: 0.75 ± 0.04 µM

Molecule: CC[C@H](C)[C@H](NC(=O)CNC(C)=O)C(=O)NCC(=O)N[C@@H](C)C(=O)N[C@H](C(=O)N[C@@H](CC(C)C)C(=O)N[C@@H](CCCCN)C(=O)N[C@H](C(=O)N[C@@H](CC(C)C)C(=O)N[C@H](C(=O)N[C@H](C(=O)NCC(=O)N[C@@H](CC(C)C)C(=O)N[C@@H](C)C(=O)N[C@@H](C)C(=O)N[C@@H](CC(C)C)C(=O)N[C@H](C(=O)N[C@@H](CO)C(=O)N[C@@H](Cc1c[nH]c2ccccc12)C(=O)N[C@H](C(=O)N[C@@H](CCCCN)C(=O)N[C@@H](CCCNC(=N)N)C(=O)N[C@@H](CCCCN)C(=O)N[C@@H](CCCNC(=N)N)C(=O)N[C@@H](CCC(N)=O)C(=O)N[C@@H](CCC(N)=O)C(N)=O)[C@@H](C)CC)[C@@H](C)CC)[C@@H](C)O)[C@@H](C)O)C(C)C)C(C)C [Peptide P2]
- Kd [2]: 0.64 nM
- Kd [3, 7]: 5.48 nM
- cytotoxicity among the modified peptides (FIG. 2) [1]: least cytotoxicity
- IC50 [1]: 26.6 ± 0.56 µM

Molecule: CC[C@H](C)[C@H](NC(=O)[C@H](CC(C)C)NC(=O)[C@H](C)NC(=O)[C@@H]1CCCN1C(=O)[C@H](CC(C)C)NC(=O)CNC(=O)[C@@H](NC(=O)[C@@H](NC(=O)[C@H](CC(C)C)NC(=O)[C@@H](NC(=O)[C@H](CCCCN)NC(=O)[C@H](CC(C)C)NC(=O)[C@@H](NC(C)=O)C(C)C)C(C)C)[C@@H](C)O)[C@@H](C)O)C(=O)N[C@@H](CO)C(=O)N[C@@H](Cc1c[nH]c2ccccc12)C(=O)N[C@H](C(=O)N[C@@H](CCCCN)C(=O)N[C@@H](CCCNC(=N)N)C(=O)N[C@@H](CCCCN)C(=O)N[C@@H](CCCNC(=N)N)C(=O)N[C@@H](CCC(N)=O)C(=O)N[C@@H](CCC(N)=O)C(N)=O)[C@@H](C)CC [Peptide P3]
- IC50 [1]: 14.4 ± 0.92 µM

Molecule: CC[C@H](C)[C@H](NC(=O)[C@H](CC(C)C)NC(=O)[C@H](C)NC(=O)[C@@H]1CCCN1C(=O)[C@H](CC(C)C)NC(=O)CNC(=O)[C@@H](NC(=O)[C@@H](NC(=O)[C@H](CC(C)C)NC(=O)[C@@H](NC(C)=O)C(C)C)[C@@H](C)O)[C@@H](C)O)C(=O)N[C@@H](CO)C(=O)N[C@@H](Cc1c[nH]c2ccccc12)C(=O)N[C@H](C(=O)N[C@@H](CCCCN)C(=O)N[C@@H](CCCNC(=N)N)C(=O)N[C@@H](CCCCN)C(=O)N[C@@H](CCCNC(=N)N)C(=O)N[C@@H](CCC(N)=O)C(=O)N[C@@H](CCC(N)=O)C(N)=O)[C@@H](C)CC [Peptide P4, VLTTGLPALISWIKRKRQQ]
- Kd [2]: 22.9 nM
- loaded peptide dissociated from the PFOB nanoparticles [4]: < 10%
- Kd [3, 7]: 225 nM
- zeta potential ([5]; liposomes after incorporating the peptide (plain liposomes −36.73 mV)): −29.843 mV
- average hydrodynamic diameter ([5]; liposomes with versus without inserted peptide): not affected
- cytotoxicity among the modified peptides (FIG. 2) [1]: least cytotoxicity
- IC50 [1]: 114 µM and 115 µM
- decrease in cytotoxicity compared to MMLT ([1]; ratio of cytotoxicity index (IC50)): ~50 fold
- cell toxicity ([1]; up to a concentration of 90 μM): essentially no cell toxicity
- zeta potential [6]: +23.33 mV
- average hydrodynamic diameter [6]: not affected

Molecule: CC[C@H](C)[C@H](NC(=O)CNC(C)=O)C(=O)NCC(=O)N[C@@H](C)C(=O)N[C@H](C(=O)N[C@@H](CC(C)C)C(=O)N[C@@H](CCCCN)C(=O)N[C@H](C(=O)N[C@@H](CC(C)C)C(=O)N[C@H](C(=O)N[C@H](C(=O)NCC(=O)N[C@@H](CC(C)C)C(=O)N1CCC[C@H]1C(=O)N[C@@H](C)C(=O)N[C@@H](CC(C)C)C(=O)N[C@H](C(=O)N[C@@H](CO)C(=O)N[C@@H](Cc1c[nH]c2ccccc12)C(=O)N[C@H](C(=O)N[C@@H](CCCCN)C(=O)N[C@@H](CCCNC(=N)N)C(N)=O)[C@@H](C)CC)[C@@H](C)CC)[C@@H](C)O)[C@@H](C)O)C(C)C)C(C)C [Peptide P5]
- IC50 [1]: 6.41 ± 0.64 µM

Molecule: VHPKQHRggVLTTGLPALISWIKR [TCP2]
- Kd [3, 8]: 40 nM
- zeta potential [6]: 12.43 mV
- average hydrodynamic diameter [6]: not affected

Molecule: VLTTGLPALISWIKRggVHPKQHR [TCP1]
- binding to cellular VCAM-1 (fluorescent signal) (VCAM-1): better binding
- Kd [3, 8]: 130 nM
- zeta potential [6]: 13.47 mV
- average hydrodynamic diameter [6]: not affected
